We go through 6 compounds from patent US5635391A, “Isolated DNA encoding a nitrilase polypeptide, hosts containing, and expression thereof optionally assisted by a E. coli GroE chaperone polypeptide” (priority 1992, dated 1997).

Test [1] concerns the target T1, purified nitrilase (Comamonas testosteroni, UniProt Q59329).
T1 construct: about 280 kDa oligomer of about 38 kDa subunits
In words: Relative activity of the purified nitrilase on various nitriles. It counts as biochemical, Comamonas testosteroni sp. Particulars: acetate buffer 10 mM, pH 4; substrate 10 mM; 25° C. On the procedure:
The activities of the purified nitrilase were measured on adiponitrile, 5-cyanovaleramide, 5-cyanovaleric acid, benzonitrile, propionitrile and acrylonitrile.
COMMON CONDITIONS: acetate buffer=10 mM, pH 4; substrate=10 mM; volume=3 ml; T=25° C.; reaction time=1 or 3 h; proteins: from 5 to 30 μg/ml.

Test [2] relates to E. coli PXL2158 + 2035. In words: Hydrolysis of methiononitrile with free and resin-fixed cells of E. coli PXL2158 + 2035. It counts as cell-based. The note with it: test 15; free cells; dry cells 1.3 g/l; MetCN 50 mM; pH7; 28° C. On the procedure: The E. coli PXL 2158+2035 free cells are fixed on resin according to the technique described in U.S. Pat. No. 4,732,851, so as to form a biocatalyst.
CONDITIONS: volume=5 ml; potassium phosphate buffer=100 mM pH7, [MetCN]=50 mM; T 28° C.; kinetics over 3 h; DB=dry biocatalyst; DC=dry cells.
Two methiononitrile batches were tested: purified methiononitrile in the form of a sulfate and free methiononitrile.
CONDITIONS: volume=5 ml; potassium phosphate buffer=100 mM pH7; T 28° C.; kinetics over 3 h; *=percent with respect to the formed acid; DB=dry biocatalyst; DC=dry cells.

Test [3] deals with E. coli PXL2158. Nature of the test: Hydrolysis of methiononitrile with E. coli PXL2158 in suspension. It counts as cell-based. The note with it: test 9; whole cells; MetCN 100 mM; DW 17.2 g/l; pH 7; 28° C. The protocol:
(§1) The recombinant strains used in this example are those from E. coli TG1, integrating the plasmids PXL2158 and PXL2035 described above and containing the nitrilase gene of Comamonas testosteroni.
(§2) Tests 9 to 13 show the nitrilase activity at 28° C., of these recombinant strains with respect to the methiononitrile, according to various operating conditions. The strain culture is performed as explained in example 6.1.The following Table 7 summarizes the conditions and the results of tests 9 to 13.

Test [4] relates to E. coli PXL2158 + 2035. In words: Hydrolysis of methiononitrile with E. coli PXL2158 + 2035 in suspension. The test is classed as cell-based. Particulars: for Initial specific activity: whole cells, DW 1.4 g/l, pH 7, 28° C. On the procedure: as §1, §2
The test system of test [5] is E. coli TG1. In words: Nitrilase activity of control strain E. coli TG1. It counts as cell-based. Particulars: no IPTG, whole cells, DW 15.5 g/l, 1 ml, substrate 50 mM, 25° C. The protocol: (§3) The activities of these strains, induced or non-induced, are measured on adiponitrile and 5-cyanovalerate at different pH values and are compared with the negative control strains: E. coli TG1, E. coli TG1 (pXL2035) and Pseudomonas putida G2081.
(§4) The cultures are carried out under the conditions described in Table 4. During the exponential growth phase, one of the two cultures of the recombinant strain is induced with 1 mM IPTG; after 2 h at 37° C., this culture is treated.
(§5) The conditions of the specific activity measurements and the results are collated in Table 5.
(§6) COMMON CONDITIONS: [substrate]=50 mM; T=25° C.; buffer 50 mM; kinetics over 90 min for 1 to 3 and over 120 min for 4 to 8.
(§7) ABBREVIATIONS: W=whole cells; S=sonicated cells; Ua=μmols of cyanovalerate produced/h; Ub=μmols of adipate produced/h; AdN=adiponitrile; CVA=5-cyanovalerate. DW=dry weight.

The test system of test [6] is E. coli TG1 pXL2087. In words: Nitrilase activity of recombinant strain E. coli TG1 pXL2087. Particulars: substrate 50 mM. It counts as cell-based. The protocol: as §3, §4, §5, §6, §7
Test [7] deals with P. putida G2081 pXL2169. In words: Nitrilase activity of recombinant strain P. putida G2081 pXL2169. The note with it: no IPTG; whole cells; DW 0.25 g/l; 1 ml; pH 7.0; substrate 50 mM. The test is classed as cell-based, Pseudomonas putida. The protocol:
as §3, §4, §5, §6, §7

In test [8] the test system is E. coli TG1 pXL2035,2158. In words: Nitrilase activity of recombinant strain E. coli TG1 pXL2035,2158. Particulars: DW 0.2 g/l; 1 ml; pH 7.0; substrate 50 mM. It counts as cell-based. The protocol:
as §3, §4, §5, §6, §7

The subject of test [9] is E. coli TG1 pXL2158. Nature of the test: Nitrilase activity of recombinant strain E. coli TG1 pXL2158. The test is classed as cell-based. Particulars: DW 1.25 g/l; 1 ml; pH 7.0; substrate 50 mM. The protocol: as §3, §4, §5, §6, §7

T1 sequence (Q59329 entry or part of it): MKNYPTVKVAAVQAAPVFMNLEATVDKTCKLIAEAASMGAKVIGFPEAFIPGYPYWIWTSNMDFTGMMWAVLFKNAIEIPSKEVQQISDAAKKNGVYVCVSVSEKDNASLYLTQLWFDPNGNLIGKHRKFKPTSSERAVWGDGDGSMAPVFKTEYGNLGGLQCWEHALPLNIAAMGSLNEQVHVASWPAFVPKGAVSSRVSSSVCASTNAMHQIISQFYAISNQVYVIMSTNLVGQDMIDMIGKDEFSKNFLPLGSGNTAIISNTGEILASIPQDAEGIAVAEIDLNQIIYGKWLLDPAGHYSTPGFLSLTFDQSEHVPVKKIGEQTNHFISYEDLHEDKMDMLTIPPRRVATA

Take `N#CCCCCC(N)=O` [5-Cyanovaleramide, 5-cyanovaleramide]: the “RELATIVE ACTIVITY” value in test [1] turned out to be 28%.
As to `C=CC#N` [Acrylonitrile, acrylonitrile], in test [1], the “RELATIVE ACTIVITY” value is 23%.
For `CSCCC(N)C#N` (stereo not drawn) [MetCN, methiononitrile], the “Specific Initial Activity” value in test [2] was determined as 63 μmol/hx mg DC. Further, the Initial specific activity in test [3] is listed as 8 μmol/h x mg of DW; in test [4] (test 10, MetCN 50 mM), 77 μmol/h x mg of DW; in test [4] (test 11, MetCN 50 mM), 62 μmol/h x mg of DW; in test [4] (test 12, MetCN 100 mM) it was 73 μmol/h x mg of DW; in [4] (test 13, MetCN 200 mM), 61 μmol/h x mg of DW. In addition, in [4] (comment on Table 7), the nitrilase activity result is reported as “about 80 μmol of MEtCN/hxmg of DW”. In addition, the “activity relative to E. coli PXL2158 alone” value in [4] (tests 9 and 10) is around 10 times.
On to `CCC#N` [Propionitrile, propionitrile], for which the “RELATIVE ACTIVITY” value in test [1] is given as 6%.
Consider `N#CCCCCC(=O)O` [5-Cyanovalerate, 5-cyanovalerate], for which the “Activity Ub” value in test [5] (pH 5.2) is reported as 0 μmols of adipate produced/h; in test [5] (pH 7.0) it was 0 μmols of adipate produced/h; in test [6] (+IPTG, sonicated cells, DW 1.4 g/l, 1 ml, pH 5.2), 25 μmols of adipate produced/h; in test [6] (+IPTG, sonicated cells, DW 1.4 g/l, 2 ml, pH 7.0) it was 8 μmols of adipate produced/h; in test [6] (+IPTG, whole cells, DW 1.4 g/l, 1 ml, pH 4.0) it was 28 μmols of adipate produced/h; in test [6] (+IPTG, whole cells, DW 1.4 g/l, 1 ml, pH 5.2), 27 μmols of adipate produced/h. For the same compound, the “Activity Ub” value in test [6] (+IPTG, whole cells, DW 1.4 g/l, 2 ml, pH 7.0) is reported as 8 μmols of adipate produced/h; in test [6] (no IPTG, sonicated cells, DW 1.0 g/l, 1 ml, pH 5.2), 13 μmols of adipate produced/h; in test [6] (no IPTG, sonicated cells, DW 1.0 g/l, 1 ml, pH 7.0), 3.2 μmols of adipate produced/h; in test [6] (no IPTG, whole cells, DW 1.2 g/l, 2 ml, pH 4.0) it was 10 μmols of adipate produced/h; in test [6] (no IPTG, whole cells, DW 1.2 g/l, 2 ml, pH 5.2), 14 μmols of adipate produced/h; in [6] (no IPTG, whole cells, DW 1.2 g/l, 2 ml, pH 7.0), 3.4 μmols of adipate produced/h. In addition, the entries for the “Activity Ub” value in test [8] and in test [9] were 70 μmols of adipate produced/h and 8.3 μmols of adipate produced/h, respectively. Moreover, in test [7], the “Activity Ua” value is given as 130 μmols of cyanovalerate produce.
For the compound `N#Cc1ccccc1` [Benzonitrile, benzonitrile], the “RELATIVE ACTIVITY” value in [1] came out at 4%.
